The text below walks through data of ChEMBL document CHEMBL4393711, “Discovery and synthesis of novel indole derivatives-containing 3-methylenedihydrofuran-2(3H)-one as irreversible LSD1 inhibitors” (Eur J Med Chem, 2019).

SMILES strings stand for the structures.

Experiment [1] addresses T1, Lysine-specific histone demethylase 1A (Homo sapiens, UniProt O60341). As to the kind of experiment: Inhibition of recombinant LSD1 (unknown origin) (catalytic domain 157 to 852 residues) expressed in Escherichia coli BL21 using H3K4me1 as substrate incubated for 1 hr by horse-radish peroxidase/amplex red-based fluorescence method.
For experiment [2], the system named is THP-1. As to the kind of experiment: Inhibition of colony formation in human THP1 cells incubated for 2 weeks by microscopic analysis. Format: functional, cell-based.
Experiment [3] deals with THP-1. In words: Induction of cellular morphology change in human THP1 cells assessed as blurred cell membrane boundaries with chromatin shrinkage incubated for 3 days by hematoxylin and eosin staining based microscopic analysis. It is filed as functional.
The target in experiment [4] is T1, Lysine-specific histone demethylase 1A.
Description: Binding affinity to LSD1 (unknown origin) assessed as association constant by SPR assay
The target is the same in experiment [5]. This is another data set of the same source.
Description: Binding affinity to LSD1 (unknown origin) assessed as dissociation rate constant by SPR assay
The target is the same in experiment [6]. The source holds these as a separate data set.
Description: Binding affinity to recombinant LSD1 (unknown origin) assessed as change in melting temperature at 50 uM by SYPRO orange dye based thermal shift assay
Experiment [7] shares this target. This is another data set of the same source.
Description: Binding affinity to recombinant LSD1 (unknown origin) assessed as change in melting temperature at 100 uM by SYPRO orange dye based thermal shift assay
Experiment [8] shares this target. This is another data set of the same source.
For experiment [9], the system named is THP-1. As to the kind of experiment: Antiproliferative activity against human THP1 cells assessed as reduction in cell viability incubated for 5 days by MTT assay. The following applies: THP-1, 120 h. (In general: Formazan colour is commonly taken as a measure of viable cells.)

What is called IC50 is the concentration that gives 50% inhibition. With `C=C1C(=O)OCC1C(O)c1cn(C(=O)c2ccco2)c2ccc(Cl)cc12` (stereo unspecified), the IC50 in experiment [1] is above 10 µM.
The same measure, in the same setting: then `C=C1C(=O)OCC1C(O)c1cn(Cc2nc3ccccc3o2)c2ccc(Cl)cc12` (stereo unspecified), with above 10 µM; and `C=C1C(=O)OCC1C(O)c1cn(Cc2ccc(Cl)cc2)c2cccc(Cl)c12` (stereo unspecified), with above 10 µM.
Take `CC1=CCSC1C(=O)c1cn(Cc2ccc(F)cc2)c2ccc(Cl)cc12` (stereo unspecified): in [1], the concentration for half-maximal inhibition (IC50) was above 10 µM.
Still for that read-out and setting: then `C=C1C(=O)OCC1C(O)c1cn(Cc2ncccn2)c2ccc(Cl)cc12` (stereo unspecified), with above 10 µM; and `C=C1C(=O)OCC1C(O)c1cn(Cc2ccncc2)c2ccc(Cl)cc12` (stereo unspecified), with above 10 µM; and `C=C1C(=O)OCC1C(O)c1cn(C(=O)C2CC2)c2ccc(Cl)cc12` (stereo unspecified), with above 10 µM.
Still for that read-out and setting: then `O=C(c1ccc(F)cc1)c1cn(Cc2ccc(F)cc2)c2ccc(Cl)cc12`, with above 10 µM.
Consider `C=C1C(=O)OCC1C(O)c1cn(C(=O)c2sccc2C)c2ccc(Cl)cc12` (stereo unspecified), for which the concentration for half-maximal inhibition (IC50) in experiment [1] was above 10 µM.
Regarding `C=C1C(=O)OCC1C(O)c1cn(Cc2cnc(Cl)s2)c2ccc(Cl)cc12` (stereo unspecified), in [1], the half-inhibitory concentration (IC50) was above 10 µM.
As to `OC(c1ccccc1)c1cn(Cc2ccc(F)cc2)c2ccc(Cl)cc12` (stereo unspecified), the half-inhibitory concentration (IC50) in [1] was above 10 µM.
For `C=C1C(=O)OCC1C(O)c1cn(Cc2nc3ccccc3s2)c2ccc(Cl)cc12` (stereo unspecified), the half-inhibitory concentration (IC50) in experiment [1] was above 10 µM.
On the same count and under the same terms, in the case of `C=C1C(=O)OCC1C(O)c1cn(C(=O)c2cccnc2Cl)c2ccc(Cl)cc12` (stereo unspecified) it was above 10 µM; in that of `C=C1C(=O)OCC1C(O)c1cn(Cc2ccc(Cl)cc2)c2cccc(OC)c12` (stereo unspecified), above 10 µM.
Regarding `O=C(c1ccccc1)c1cn(Cc2ccc(F)cc2)c2ccc(Cl)cc12`, in [1], the IC50 is above 10 µM.
On the same count and under the same terms, then `C=C1C(=O)OCC1C(O)c1cn(Cc2ccc(Cl)cc2)c2cc(OC)ccc12` (stereo unspecified), with above 10 µM; and `C=C1C(=O)OCC1C(O)c1cn(Cc2ccc(Cl)cc2)c2cc(Cl)ccc12` (stereo unspecified), with above 10 µM.
For `O=C(/C=C/c1ccco1)c1cn(Cc2ccc(F)cc2)c2ccc(Cl)cc12`, in experiment [1], the IC50 is above 10 µM.
On to `O=C(/C=C/c1cccs1)c1cn(Cc2ccc(F)cc2)c2ccc(Cl)cc12`, for which, in [1], the concentration for half-maximal inhibition (IC50) is above 10 µM.
Consider `C=C1C(=O)OCC1C(O)c1cn(Cc2c(C)noc2C)c2ccc(Cl)cc12` (stereo unspecified), for which the IC50 in experiment [1] was above 10 µM.
For `C=C1C(=O)OCC1C(O)c1cn(Cc2ccc(Cl)cc2)c2c(Cl)cccc12` (stereo unspecified), the 50% inhibitory concentration (IC50) in experiment [1] was above 10 µM.
Regarding `O/N=C(\c1ccccc1)c1cn(Cc2ccc(F)cc2)c2ccc(Cl)cc12`, in [1], the half-maximal inhibitory concentration (IC50) is above 10 µM.
In general, ΔTm refers to the shift of the melting midpoint relative to a reference. As to `c1ccc([C@@H]2C[C@H]2NC2CCNCC2)cc1`, in the experiment on THP-1 [2], the inhibition result is “Dose-dependent effect”. In the experiment with THP-1 [3], the Activity entry was “Dose-dependent effect”. Also, the Ka in experiment [4] amounted to 2.6 ×10³ /M.s. In addition, in experiment [5], the Kdiss was 1.11 ×10⁻¹ /s. Further, the thermal shift (ΔTm) was 2.21 °C in experiment [6], 4.28 °C in experiment [7] and 8.37 °C in [8].
For `C=C1C(=O)OCC1C(O)c1cn(C(=O)/C=C/c2ccccc2)c2ccc(Cl)cc12` (stereo unspecified), the 50% inhibitory concentration (IC50) in experiment [1] is above 10 µM.
With `C=C1C(=O)OCC1C(O)c1cn(C(=O)c2c(C)noc2C)c2ccc(Cl)cc12` (stereo unspecified), the IC50 in [1] was above 10 µM.
The same measure, in the same setting: then `C=C1C(=O)OCC1C(O)c1cn(Cc2cncc(C)c2)c2ccc(Cl)cc12` (stereo unspecified), with above 10 µM; and `C=C1C(=O)OCC1C(O)c1cn(Cc2ccc(Cl)cn2)c2ccc(Cl)cc12` (stereo unspecified), with above 10 µM.
The same measure, in the same setting: in the case of `C=C1C(=O)OCC1C(O)c1cn(Cc2ccc(Cl)cc2)c2ccc(Cl)cc12` (stereo unspecified) it was above 10 µM; in that of `O=C(c1cn(Cc2ccc(F)cc2)c2ccc(Cl)cc12)C1CC1`, above 10 µM; in that of `C=C1C(=O)OCC1C(O)c1cn(Cc2nc(C)c3ccccc3n2)c2ccc(Cl)cc12` (stereo unspecified), above 10 µM.
As to `C=C1C(=O)OCC1C(O)c1cn(CC2CC2)c2ccc(Cl)cc12` (stereo unspecified), the half-maximal inhibitory concentration (IC50) in [1] was above 10 µM.
Still for that read-out and setting: then `CC(=O)c1cn(Cc2ccc(F)cc2)c2ccc(Cl)cc12`, with above 10 µM; and `C=C1C(=O)OCC1C(O)c1cn(Cc2ccc(Cl)cc2)c2ccc(OC)cc12` (stereo unspecified), with above 10 µM.
Still for that read-out and setting: then `C=C1C(=O)OCC1C(O)c1cn(Cc2csc(N)n2)c2ccc(Cl)cc12` (stereo unspecified), with above 10 µM.
Same read-out and setting: in the case of `O=C(c1ccncc1)c1cn(Cc2ccc(F)cc2)c2ccc(Cl)cc12` it was above 10 µM.
As for `O=C(c1ccco1)c1cn(Cc2ccc(F)cc2)c2ccc(Cl)cc12`, in experiment [1], the IC50 was above 10 µM.
Same read-out and setting: then `C=C1C(=O)OCC1C(O)c1cn(Cc2nc3ccccc3[nH]2)c2ccc(Cl)cc12` (stereo unspecified), with above 10 µM; and `C=C1C(=O)OCC1C(O)c1cn(Cc2ccc(Cl)cc2)c2ccc(F)cc12` (stereo unspecified), with above 10 µM; and `Cc1ccc(C(=O)c2cn(Cc3ccc(F)cc3)c3ccc(Cl)cc23)cc1`, with above 10 µM.
Same read-out and setting: in the case of `C=C1C(=O)OCC1C(O)c1cn(Cc2ccc(Cl)s2)c2ccc(Cl)cc12` (stereo unspecified) it was above 10 µM.
In the case of `C=C1C(=O)OCC1C(O)c1cn(Cc2ccc(F)cc2)c2ccc(Cl)cc12` (stereo unspecified), the IC50 in the experiment with THP-1 [9] is 1.2 µM. Further, in the experiment with THP-1 [2], the inhibition result is “Dose-dependent effect”. Further, in the experiment on THP-1 [3], the Activity result is “Dose-dependent effect”.
For `C=C1C(=O)OCC1C(O)c1cn(Cc2ccc(Cl)cc2)c2c(OC)cccc12` (stereo unspecified), the half-inhibitory concentration (IC50) in [1] was above 10 µM.
Same read-out and setting: then `O=C(c1ccnc(Cl)c1)c1cn(Cc2ccc(F)cc2)c2ccc(Cl)cc12`, with above 10 µM.
